Measurements from patent US11970521B2, “Neuroprotective beta amyloid core peptides and peptidomimetic derivatives” (priority 2016, dated 2024).
Where no end group is shown, it is not given here. [ ]: non-standard residue; d: D form.

Legend:
[1] = test system: NG108-15 cells expressing α4β2-nAChRs; experiment: Cell stress (ROS) assay, α4β2-nAChR-transfected differentiated NG108-15 cells treated with Aβ1-42; assay type: cell-based, rodent; conditions: for Aβ1-42-induced ROS, co-treatment with stabilized peptides: daily 100 nM with 100 nM Aβ1-42, FIG. 9B, p<0.05 vs. Aβ1-42 alone
Excerpt: (§1) In Vitro Neuronal Models. The studies were, performed on the NG108-15 rodent hybrid neuroblastoma cell line and primary hippocampal neuron cultures. The cell line can be differentiated, yielding axonal neurites with presynaptic-like varicosities that have the ability to release acetylcholine via exocytosis in response to stimulation. […] The primary hippocampal neuron cultures provide a physiologically relevant model.
(§2) Neuroblestoma Clonal Cell Culture and Transfection. Rodent hybrid neuroblastoma NG108-15 cells were used as a model nerve cell system allowing reconstitution with defined target receptors for Aβ. The cells were cultured in Dulbecco's modified Eagle's medium (DMEM) containing 15% fetal bovine serum (FBS) and differentiated in the presence of reduced serum (1% FBS) and 1 mM dibutyryl cyclic AMP for 72 h, Expression vectors (pcDNA3.1) containing mouse sequences for α4 and β2 nAChR subunits (1:4 ratio respectively) were transiently transfected into the cells using FuGENE HD (ThernioFisher, catalog #PRE2311) for 48 h. Mock-transfected NG108-15 cells, exposed only to FuGENE HO and not plasmid DNA, were used as controls.
Cell Stress Assays. Cells were plated, differentiated and treated for 3 days poor to assay. Cell count and fluorescence intensity of reactive oxygen species (ROS)-positive cells were assessed as a means to measure cellular oxidative stress using an Image-IT® LIVE Green Reactive Oxygen Species Detection Kit. In brief, the cells were treated for three days for NG108-15 cultures end five or ten days for primary hippocampal neuronal cultures. The media was changed every day, thus replenishing with fresh Aβ every 24 h, unless otherwise noted. Thereafter, the cells were incubated with carboxy-H2DCFDA (component A) at 37° C. for 30 min. During the last 5 min of incubation, 2 μg/ml of HOECHST stain (component B) was added to assess, in parallel, the integrity of the cell nuclei. The cells were washed twice with HBS and visualized using an Olympus IX81 epifluorescence microscope at excitation/emission of 495) 529 nm (ROS) and 350/461 nm (HOECHST), respectively.

α4β2-nAChRs = molecular target: T1, α4β2-nAChRs (Mus musculus, UniProt O70174+Q9ERK7); experiment: Ca2+ imaging (Fluo-4) in varicosities of NG108-15 cells expressing α4β2-nAChRs; assay type: cell-based; conditions: 100 nM; FIG. 13B
T1 construct: expressed in transfected cells; host or cells: differentiated NG108-15 rodent hybrid neuroblastoma cells, pcDNA3.1 vectors, transient transfection with FuGENE HD
T1 sequence (O70174 31-629): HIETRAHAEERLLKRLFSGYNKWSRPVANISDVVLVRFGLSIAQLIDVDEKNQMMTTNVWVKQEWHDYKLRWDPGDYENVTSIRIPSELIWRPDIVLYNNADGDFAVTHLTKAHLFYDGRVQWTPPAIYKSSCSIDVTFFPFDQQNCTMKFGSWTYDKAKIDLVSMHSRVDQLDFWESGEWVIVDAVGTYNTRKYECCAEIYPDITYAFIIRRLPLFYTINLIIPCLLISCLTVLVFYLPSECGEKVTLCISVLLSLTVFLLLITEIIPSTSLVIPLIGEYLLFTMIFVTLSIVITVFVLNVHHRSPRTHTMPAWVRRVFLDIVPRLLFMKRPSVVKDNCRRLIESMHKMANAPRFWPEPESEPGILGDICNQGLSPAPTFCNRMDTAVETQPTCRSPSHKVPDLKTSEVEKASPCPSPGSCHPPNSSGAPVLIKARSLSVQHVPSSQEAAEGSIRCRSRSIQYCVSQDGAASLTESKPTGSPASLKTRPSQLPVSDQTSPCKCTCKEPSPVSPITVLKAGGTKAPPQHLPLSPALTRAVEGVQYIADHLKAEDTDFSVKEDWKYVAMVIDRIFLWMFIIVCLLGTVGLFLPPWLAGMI
T1 sequence (Q9ERK7 26-501): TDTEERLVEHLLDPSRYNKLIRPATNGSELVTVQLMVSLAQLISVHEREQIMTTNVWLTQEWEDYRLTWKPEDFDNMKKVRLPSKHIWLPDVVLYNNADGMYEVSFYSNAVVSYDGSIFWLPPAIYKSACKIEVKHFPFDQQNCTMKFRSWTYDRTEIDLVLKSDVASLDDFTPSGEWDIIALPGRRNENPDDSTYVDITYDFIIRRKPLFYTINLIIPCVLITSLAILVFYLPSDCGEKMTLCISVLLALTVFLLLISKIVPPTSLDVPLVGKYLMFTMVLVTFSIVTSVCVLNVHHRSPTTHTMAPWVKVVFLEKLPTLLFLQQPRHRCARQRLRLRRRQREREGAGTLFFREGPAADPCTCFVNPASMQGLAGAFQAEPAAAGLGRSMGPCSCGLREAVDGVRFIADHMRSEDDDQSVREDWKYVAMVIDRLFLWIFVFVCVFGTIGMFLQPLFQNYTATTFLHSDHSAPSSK
Protocol: as §2
Ca^2+ Imaging Fluo-4, a Ca^2+ indicator dye, was loaded into cells on coverslips and visualization of [Ca^2+] was done via a Nikon PCM 2000 Cameleon AOTF confocal microscope. Each time-series was normalized to baseline fluorescence intensity at time zero (F/F0). After recording a baseline image series, each treatment was perfused over cells for 2.5 minutes or 15 minutes and quantification of relative fluorescence changes was analyzed through imageJ.

[2] = test system: mock-transfected NG108-15 cells; experiment: Cell stress (ROS) assay, mock-transfected NG108-15 cells (absent nAChRs) treated with μM Aβ1-42; assay type: cell-based, rodent; conditions: co-treatment with nM-μM concentrations and 1 μM Aβ1-42; FIG. 6A; p<0.0001
Excerpt: as §1, §2
Cell Stress Assays. […] Cell count and fluorescence intensity of reactive oxygen species (ROS)-positive cells were assessed as a means to measure cellular oxidative stress using an Image-IT® LIVE Green Reactive Oxygen Species Detection Kit. […]

[3] = test system: mock-transfected NG108-15 cells; experiment: Cell death (apoptosis) TUNEL assay, NG108-15 cells without nAChRs; assay type: cell-based; conditions: nM-μM co-treatment over four days with 1 μM Aβ1-42; FIG. 14B; trend of greater reduction at μM
Protocol: as §2

[4] = test system: NG108-15 cells expressing α4β2-nAChRs; experiment: Cell death (apoptosis) TUNEL assay, α4β2-nAChR-transfected NG108-15 cells; assay type: cell-based, rodent; conditions: nM co-treatment on day 1, 2 or 3 after start of daily Aβ1-42; FIG. 14A; p<0.0001
Protocol: as §2
Cell Death (Apoptosis) Assay. Cells were plated, differentiated and treated for either 3 or 4 days prior to assay. Apoptotic cells were detected as DNA fragmentation by Click-IT TUNEL Alexa fluor 488. In brief, the cells were treated for four days, exchanging media each day. After the fourth day of treatment, the cells were fixed with freshly prepared 4% paraformaldehyde in PBS at room temperature for 20 min and permeabilized with Triton X-100 (0.25% in PBS) for another 20 min. The cultures were then washed twice and incubated with 50 μL of terminal deoxynucleotidyi transferase reaction buffer (Component A) for 10 min at room temperature. […]

[5] = test system: primary hippocampal neurons; experiment: Cell stress (ROS) assay in primary hippocampal neuron cultures; assay type: cell-based, mouse; conditions: 1 μM with 1 μM Aβ1-42, 5 or 10 days; p<0.0001
Excerpt: Hippocampal Neuron Culture. All animal procedures followed an tACUC-approved protocol in accordance with animal welfare guidelines, Hippocampal neuron cultures even prepared from neonatal mouse pups (0-2d old) of either gender (roughly equivalent numbers) obtained from established colonies of wild-type B6.SJL (background) mice. Following rapid decapitation, brains were removed into ice-cold Neurobasal A medium (NB) containing B-27 supplement, 5% fetal bovine serum and Gentamicin (serum NB). Hippocampi were then isolated under a stereomicroscope. The hippocampi were digested with papain (Worthington, catalog #35N16202) in Hanks with 10 mM cysteine at 37° C. for 15 mins. The preparations were washed by centrifugation in serum NB. The cells were dissociated using sequential trituration with polished Pasteur pipettes of decreasing diameter and collected by low-speed centrifugation. The dissociated cells were preplated in standard tissue culture dishes to remove adherent non-neuronal cells (glia; fibroblasts) for 10-15 mins. […]

[6] = test system: primary hippocampal neurons; experiment: Cell survival (cell counts), primary hippocampal neurons; assay type: cell-based, mouse; conditions: 1 μM with 1 μM Aβ1-42; FIG. 10B; p<0.0001
Protocol: (§3) Cell Survival. Cell survival was determined by counting cells everyday for 7 or 10 days of treatment. For each condition, all cells in 5 random fields of view were counted and averaged. Percent cell death was calculated based on daily cell counts as a proportion of starting cell count numbers (i.e. day 0).

[7] = test system: NG108-15 cells expressing α4β2-nAChRs; experiment: Cell survival (daily cell counts), NG108-15 cells with α4β2-nAChRs; assay type: cell-based, rodent; conditions: 100 nM co-treatment with 100 nM Aβ1-42; FIG. 10A; p<0.0001
Protocol: Neuroblestoma Clonal Cell Culture and Transfection. Rodent hybrid neuroblastoma NG108-15 cells were used as a model nerve cell system allowing reconstitution with defined target receptors for Aβ. […] Mock-transfected NG108-15 cells, exposed only to FuGENE HO and not plasmid DNA, were used as controls.
as §3

Substance	Aβ1-42-induced ROS, co-treatment with stabilized peptides [1]	Average peak Ca2+ response relative to N-Aβcore (α4β2-nAChRs)	Aβ1-42-induced ROS, co-treatment or post-treatment (rescue) ([1]; nM concentrations, co-treatment or rescue for 3-, 2- or 1-day, 100 nM Aβ1-42, FIG. 5A, p<0.0001)	Aβ1-42-induced oxidative stress (ROS) in absence of nAChRs [2]	Aβ1-42-induced DNA-fragmentation in absence of nAChRs [3]	Aβ1-42-induced apoptosis (TUNEL staining) [4]	Aβ1-42-induced ROS in primary neurons, co-treatment [5]	Aβ1-42-induced cell death over 10-day treatments, co-treatment [6]	Aβ1-42-induced cell death at 7 days, co-treatment [7]
Capped-D-[Aβcore]: D-enantiomer N-Aβcore with N-terminal acetylation and C-terminal amidation (Ac-[dY][dE][dV][dH][dH][dQ]-NH2; SMILES CC(=O)N[C@H](Cc1ccc(O)cc1)C(=O)N[C@H](CCC(=O)O)C(=O)N[C@@H](C(=O)N[C@H](Cc1c[nH]cn1)C(=O)N[C@H](Cc1c[nH]cn1)C(=O)N[C@H](CCC(N)=O)C(N)=O)C(C)C)	reduces ROS	retains activity							
D-[Aβcore]: N-Aβcore converted from L-configuration to D-configuration for each amino acid ([dY][dE][dV][dH][dH][dQ])	reduces ROS	retains activity							
Tyrosine-Glutamate-Valine-Histidine-Histidine-Glutamine [N-Aβcore]			reduced Aβ1-42-induced ROS back to baseline levels	reduced this oxidative stress compared to Aβ1-42 alone	reduced DNA-fragmentation compared to Aβ1-42 alone	reduced apoptosis compared to Aβ1-42 alone	reduced the levels of ROS down to untreated (baseline) levels	protected primary hippocampal neurons against β1-42-induced cell death	able to fully protect against Aβ1-42-induced cell death
capped-N-Aβcore: N-Aβcore with N-terminus capped with an acetyl group and C-terminus with an amide group (Ac-YEVHHQ-NH2)	reduces ROS	retained its potent activity							
